Measured values taken from US20210341448A1, “SCREENING METHOD FOR THERAPEUTIC DRUG OR PROPHYLACTIC DRUG FOR TAUOPATHY AND DIAGNOSTIC METHOD FOR TAUOPATHY” (National Center for Geriatrics and Gerontology, priority 2018, published 2021).

How the values were obtained:
membrane protein (NMDAR) = test: Membrane protein-based sandwich ELISA; assay type: binding, mouse
Procedure: Pellets of the membrane protein obtained from tau knockout brain by the procedure of the above (7-1) were dissolved in 2% cholic acid or 1% deoxycholate/buffer (50 mM of HEPES, 150 mM of NaCl, pH 7.4), and the solution was centrifuged at 4° C., 150,000×g for 30 minutes to thereby collect the supernatant to use as a membrane protein solution. The obtained membrane protein solution was applied to an ELISA plate (Sumitomo Bakelite Co., Ltd., MS-8596F) and incubated at 4° C. for 60 minutes to thereby coat the plate with the membrane protein. After washing with wash solution (0.004 to 0.008% MNG-3, 50 mM of HEPES, pH 7.4), blocking was done by adding 1% FBS-containing wash solution and incubating at 4° C. for 60 minutes. The solvent of the HT-tau oligomer sample prepared in the above (1-4) was replaced with the wash solution using a protein concentrator (10K MWCO, Pierce, 88526) to thereby prepare a tau oligomer solution of 10^−16 to 10^−6 g/ml. These solutions were applied to the plate and incubated at 4° C. for 15 to 60 minutes. Then, the plate was washed thoroughly with the wash solution and a 5% skim milk-containing wash solution was added, followed by incubating at room temperature for 30 minutes to thereby block the protein. After washing using the wash solution, an anti-HaloTag antibody/wash solution (1:1000 dilution) was added and incubated at room temperature for 30 minutes. Subsequently, the plate was washed with the wash solution, an HRP-labelled secondary antibody/wash solution (Invitrogen, A27036) (1:5000 dilution) was added and incubated at room temperature for 30 minutes. Then, chromogenic reactions were carried out using an Ultra TMB solution (Thermo Fisher Scientific, 34028) to detect the tau oligomers bound to the membrane protein.

NMDAR = target: T1, NMDAR (Mus musculus, UniProt P35436+P35438+Q01097); test: Coimmunoprecipitation of tau and NMDAR with anti-tau antibody (TauC); assay type: binding; details: tau knockout brain slice exposed to tau oligomer sample, IP: TauC, western blot anti-NR1
T1 construct: from tissue
Procedure: Whether or not the tau oligomers directly bind and interact with NMDARs was tested by the coimmunoprecipitation. The tau-knockout-brain slice specimens exposed to the tau oligomer sample prepared by the procedure of the above (2-1) and (2-2) was homogenized in 50-fold volume of the lysis buffer (4 mM of HEPES, 2 mM of EGTA, 0.32 M of sucrose, 1% Protease Inhibitor Cocktail, 1% Phosphatase Inhibitor Cocktail (Nacalai Tesque Inc., #07575-51)) and was centrifuged at 4° C., 12,000×g for 15 minutes to thereby collect pellets. The obtained pellets were dissolved in a 0.1% Triton X-100/TBS solution (25 mM of Tris-HCl, 150 mM of NaCl, 1 mM of EDTA, 1% NP-40, 5% glycerol, 0.1% Triton X-100, pH 7.4) and the resultant was used as a membrane protein solution. Coimmunoprecipitation on the obtained membrane protein solution was carried out by using an anti-tau antibody (TauC) (Dako, #A0024) (1:2000 dilution) and Pierce Direct Magnetic IP/Co-IP Kit (Thermo Fisher Scientific, #88828), in accordance with the recommended protocol by the kit. The collected coimmunoprecipitation samples were electrophoresed and then NMDAR was detected by the western blot. The antibody used was an anti-NR1 subunit antibody (Merck Millipore, #MAN363) (1:2000 dilution).

[1] = system: brain slice specimen (hippocampus/entorhinal cortex complex); test: Measurement of synapse transmission efficiency (fiber-volley/fEPSP) in brain slice specimens; details: aging mouse brain slice exposed to 10 μg/ml for 2 to 3 hours, vs aCSF negative control; p<0.0001
Procedure: Brain slice specimens from mice were prepared by the following procedure to evaluate impacts by the tau oligomer on synapse transmission efficiency. 20- to 23-month-old C57BL/6 mice (C57BL/6J or C57BL/6N, male) were cervically dislocated and decapitated to isolate the brain. The obtained brain was thoroughly cooled in aCSF (124 mM of NaCl, 3 mM of KCl, 26 mM of NaHCO3, 1.25 mM of NaH2PO4, 2 mM of CaCl2, 1 mM of MgSO4, 10 mM of D-glucose) bubbled with a 95% O2/5% CO2 mixed gas, then dissected at the center of the cerebrum along the coronal plane, and further the dissected posterior site of the brain was sliced along the horizontal cross sections to a thickness of 350 μm using a vibratome (Leica, VT-1200S). […]
The brain slice specimen was moved to a measurement chamber through which aCSF was perfused, and electric pulse stimulation of 1.5, 2, 3, or 4 nA was applied to record induced potential changes for the measurement of synapse strength from […]. […] The recorded waveform was analyzed using a self-made analysis software to calculate an amplitude of fiber-volley and an amplitude of excitatory postsynaptic potential (fEPSP) at each electric pulse stimulation.

T1 sequence (P35436 23-1464, other chains not shown): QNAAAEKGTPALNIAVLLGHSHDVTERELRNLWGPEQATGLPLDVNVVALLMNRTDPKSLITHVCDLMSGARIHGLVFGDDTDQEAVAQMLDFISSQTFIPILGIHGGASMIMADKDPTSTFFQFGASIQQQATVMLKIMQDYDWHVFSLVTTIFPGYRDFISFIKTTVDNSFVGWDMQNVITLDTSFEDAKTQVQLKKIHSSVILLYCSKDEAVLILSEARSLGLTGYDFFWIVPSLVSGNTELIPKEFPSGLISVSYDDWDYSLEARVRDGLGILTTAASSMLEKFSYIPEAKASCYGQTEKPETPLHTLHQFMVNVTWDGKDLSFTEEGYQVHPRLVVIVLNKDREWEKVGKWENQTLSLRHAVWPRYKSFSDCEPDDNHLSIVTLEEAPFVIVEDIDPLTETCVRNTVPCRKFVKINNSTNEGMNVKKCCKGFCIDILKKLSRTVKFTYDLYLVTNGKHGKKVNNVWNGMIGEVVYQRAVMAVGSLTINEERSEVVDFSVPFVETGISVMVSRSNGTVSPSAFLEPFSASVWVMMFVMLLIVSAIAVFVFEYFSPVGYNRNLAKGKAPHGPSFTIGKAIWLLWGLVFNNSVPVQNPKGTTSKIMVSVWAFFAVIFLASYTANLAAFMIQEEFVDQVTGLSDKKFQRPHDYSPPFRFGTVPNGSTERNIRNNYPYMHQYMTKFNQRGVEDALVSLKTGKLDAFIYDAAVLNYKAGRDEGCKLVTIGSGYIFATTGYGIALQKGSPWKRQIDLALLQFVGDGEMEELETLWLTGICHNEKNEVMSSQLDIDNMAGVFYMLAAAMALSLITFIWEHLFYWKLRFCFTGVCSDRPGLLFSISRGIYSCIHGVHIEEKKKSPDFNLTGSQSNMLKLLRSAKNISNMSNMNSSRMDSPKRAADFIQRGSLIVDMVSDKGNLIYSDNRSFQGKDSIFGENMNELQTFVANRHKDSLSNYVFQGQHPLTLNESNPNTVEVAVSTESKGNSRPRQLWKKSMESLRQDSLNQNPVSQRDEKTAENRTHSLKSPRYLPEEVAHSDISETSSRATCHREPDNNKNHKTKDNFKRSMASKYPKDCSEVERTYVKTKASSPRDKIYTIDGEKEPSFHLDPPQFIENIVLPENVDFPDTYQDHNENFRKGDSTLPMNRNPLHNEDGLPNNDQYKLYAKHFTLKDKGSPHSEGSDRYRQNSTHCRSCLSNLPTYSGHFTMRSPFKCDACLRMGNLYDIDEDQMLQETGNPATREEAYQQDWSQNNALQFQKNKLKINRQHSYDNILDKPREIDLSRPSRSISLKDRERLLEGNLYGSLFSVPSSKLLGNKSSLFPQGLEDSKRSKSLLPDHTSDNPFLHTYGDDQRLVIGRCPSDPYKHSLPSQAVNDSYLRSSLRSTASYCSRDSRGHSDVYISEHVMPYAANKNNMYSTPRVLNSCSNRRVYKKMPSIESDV
T1 sequence (Q01097 27-1482, other chains not shown): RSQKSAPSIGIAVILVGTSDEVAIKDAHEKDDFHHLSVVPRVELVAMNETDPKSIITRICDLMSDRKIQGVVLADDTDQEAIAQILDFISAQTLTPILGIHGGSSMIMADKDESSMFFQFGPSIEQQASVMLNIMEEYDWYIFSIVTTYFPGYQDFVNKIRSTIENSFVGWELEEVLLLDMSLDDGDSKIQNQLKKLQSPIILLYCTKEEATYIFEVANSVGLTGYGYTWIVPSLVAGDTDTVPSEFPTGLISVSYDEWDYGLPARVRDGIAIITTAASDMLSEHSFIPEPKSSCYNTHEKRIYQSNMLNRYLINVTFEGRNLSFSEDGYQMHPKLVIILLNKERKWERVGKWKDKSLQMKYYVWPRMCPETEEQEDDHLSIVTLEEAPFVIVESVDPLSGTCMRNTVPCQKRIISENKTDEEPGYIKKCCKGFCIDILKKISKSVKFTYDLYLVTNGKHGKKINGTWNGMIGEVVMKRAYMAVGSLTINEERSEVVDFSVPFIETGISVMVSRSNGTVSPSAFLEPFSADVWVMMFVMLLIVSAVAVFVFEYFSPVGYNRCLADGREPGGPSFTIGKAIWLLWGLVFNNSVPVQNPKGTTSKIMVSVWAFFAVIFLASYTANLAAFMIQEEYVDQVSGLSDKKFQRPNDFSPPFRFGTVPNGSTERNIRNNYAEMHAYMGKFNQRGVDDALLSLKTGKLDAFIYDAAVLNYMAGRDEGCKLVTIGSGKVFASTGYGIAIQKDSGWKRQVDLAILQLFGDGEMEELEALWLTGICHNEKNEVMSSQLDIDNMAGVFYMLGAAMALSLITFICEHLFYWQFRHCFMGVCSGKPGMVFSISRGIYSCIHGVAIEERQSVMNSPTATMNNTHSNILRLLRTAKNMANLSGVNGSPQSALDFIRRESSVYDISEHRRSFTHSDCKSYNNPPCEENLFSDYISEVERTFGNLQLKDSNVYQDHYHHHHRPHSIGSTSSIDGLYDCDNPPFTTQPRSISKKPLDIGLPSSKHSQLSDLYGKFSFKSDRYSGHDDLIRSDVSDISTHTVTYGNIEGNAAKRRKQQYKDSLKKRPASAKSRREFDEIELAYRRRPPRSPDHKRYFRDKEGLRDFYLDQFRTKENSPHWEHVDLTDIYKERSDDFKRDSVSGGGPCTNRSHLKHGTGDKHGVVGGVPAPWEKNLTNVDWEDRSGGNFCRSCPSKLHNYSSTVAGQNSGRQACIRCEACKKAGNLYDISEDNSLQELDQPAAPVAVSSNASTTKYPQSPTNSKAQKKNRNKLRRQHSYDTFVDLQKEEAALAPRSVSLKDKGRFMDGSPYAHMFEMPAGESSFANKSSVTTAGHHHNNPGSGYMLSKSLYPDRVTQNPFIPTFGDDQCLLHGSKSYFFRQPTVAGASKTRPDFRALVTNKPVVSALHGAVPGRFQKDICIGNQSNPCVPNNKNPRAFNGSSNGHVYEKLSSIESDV

tau oligomer: polymer of human tau 2N4R monomers, polymerized with mouse brain extract and ATP, collected as pellets
amount of tau oligomer bound to membrane protein (membrane protein (NMDAR); tau oligomer solution of 10^−8 g/ml or higher): increased in a concentration-dependent manner | binding of the tau oligomer to membrane protein (membrane protein (NMDAR); tau oligomer solution of 10^−11 g/ml or lower): detected | coimmunoprecipitation of NR1 subunit with tau (NMDAR): clear band of the NR1 subunits was detected | synapse transmission efficiency (fiber-volley/fEPSP ratio) [1]: significantly reduced
